Results reported in ChEMBL document CHEMBL1157115, “Macrocyclic BACE inhibitors: Optimization of a micromolar hit to nanomolar leads” (Bioorg Med Chem Lett, 2010).

Columns and labels:
[1] = biological target: T1, Beta-secretase 1 (Homo sapiens, UniProt P56817); experiment: Inhibition of BACE1 assessed as amyloid beta (1-40) production
[2] = test system: Mus musculus; experiment: Reduction in amyloid beta in mouse plasma at 50 mg/kg, po; assay type: ADME, organism-based; parameters: dose 50 mg/kg, route oral; scale not given: the % may be the effect or the level left; conditions: in vivo
[3] = test system: Mus musculus; experiment: Reduction in amyloid beta in mouse plasma at 25 mg/kg, po; assay type: ADME, organism-based; parameters: dose 25 mg/kg, route oral; scale not given: the % may be the effect or the level left; conditions: in vivo
[4] = test system: Mus musculus; experiment: Reduction in amyloid beta in mouse plasma at 10 mg/kg, po; assay type: ADME, organism-based; parameters: dose 10 mg/kg, route oral; scale not given: the % may be the effect or the level left; conditions: in vivo
[5] = biological target: T1, Beta-secretase 1

T1 sequence (P56817 whole entry): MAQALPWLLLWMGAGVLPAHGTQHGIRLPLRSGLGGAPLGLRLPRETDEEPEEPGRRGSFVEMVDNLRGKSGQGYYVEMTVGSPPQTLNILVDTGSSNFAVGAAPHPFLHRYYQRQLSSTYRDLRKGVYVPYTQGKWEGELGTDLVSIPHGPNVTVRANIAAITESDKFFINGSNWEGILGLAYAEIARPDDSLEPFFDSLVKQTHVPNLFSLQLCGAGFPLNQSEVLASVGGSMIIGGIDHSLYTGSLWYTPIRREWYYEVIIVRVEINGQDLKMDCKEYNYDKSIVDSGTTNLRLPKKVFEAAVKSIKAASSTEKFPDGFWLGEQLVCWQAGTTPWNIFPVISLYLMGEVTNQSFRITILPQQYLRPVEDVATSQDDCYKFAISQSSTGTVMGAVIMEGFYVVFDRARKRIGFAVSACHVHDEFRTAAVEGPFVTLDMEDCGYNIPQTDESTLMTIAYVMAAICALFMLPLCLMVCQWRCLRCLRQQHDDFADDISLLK

In the case of CC(C)[C@@H]1CCC(=O)N(C2CCOCC2)CCc2cccc(c2)Oc2ccc3c(c2)CN1C(N)=N3, the IC50 [1] is reported as 685 nM.
NC1=Nc2ccc3cc2CN1[C@H](C1CCCCC1)CCC(=O)N(C1CCCCC1)CCc1cccc(c1)O3 gave an Activity [2] of 23%, an Activity [3] of 22% and an Activity [4] of 13%.
NC1=Nc2cnc3cc2CN1[C@H](C1CCCCC1)CCC(=O)N(C1CCCCC1)CCc1cccc(c1)O3 was tested, and the IC50 [1] was 7 nM and the Ki [5] was 5 nM.
NC1=Nc2cc(F)c3cc2CN1[C@H](C1CCCCC1)CCC(=O)N(C1CCCCC1)CCc1cccc(c1)O3 gave an IC50 [1] of 30 nM and a Ki [5] of 8 nM.
